“And” between values parts separate entries of the source, which are not always exact repeats. Equal values may be shown once. Some results are limits rather than exact numbers.

The results in this text go back to patent EP0513703A2, “Carbamate esters of eseroline having anticholinesterase activity, a process for their preparation and relative pharmaceutical compositions containing them as the active principle” (priority 1991, dated 1992).

The test system of one data set is mice (Swiss strain). Briefly: Acute toxicity, LD50 by oral route in mice (class D derivatives). Particulars: mouse, suspension in 2 % carboxymethylcellulose, observation 7 days. The data set is classed as in vivo. The source says: The letal doses 50 (LD50) by oral route (suspension in 2 % carboxymethylcellulose) are reported hereinbelow: TABLE 6
The subject of data set [1] is mouse. Briefly: Spontaneous motility, Dews method modified according to Carminati (class D derivatives). The data set is classed as in vivo. Conditions: mouse (Swiss). From the text:
The Dews method was used, modified according to Carminati (Arch. int. Pharmacodyn. et Thér 181, 68,1969).

Data set [2] relates to acetylcholinesterase (AchE). The data set is classed as in vivo, Wistar male rats. Conditions: rat, oral, 1-2 mg/kg.
For data set [3], the system named is motor activity. Briefly: Antagonistic effect on the stimulating effect of scopolamine (class F derivatives). The data set is classed as in vivo. Particulars: scopolamine 1 mg/kg; oral administration. The protocol:
At the dose of 1 mg/kg the scopolamine produce a clear stimulating effect (100 % of motor activity increase). This is countered by the oral administration of 2.5 mg of the three products MGR001, MGR002 and MGR003.

The target of data set [4] is T1, AChE (acetylcholinesterase) on the mouse brain (Mus musculus, UniProt P21836).
T1 construct: from tissue; host or cells: mouse brain
T1 sequence (P21836 32-614): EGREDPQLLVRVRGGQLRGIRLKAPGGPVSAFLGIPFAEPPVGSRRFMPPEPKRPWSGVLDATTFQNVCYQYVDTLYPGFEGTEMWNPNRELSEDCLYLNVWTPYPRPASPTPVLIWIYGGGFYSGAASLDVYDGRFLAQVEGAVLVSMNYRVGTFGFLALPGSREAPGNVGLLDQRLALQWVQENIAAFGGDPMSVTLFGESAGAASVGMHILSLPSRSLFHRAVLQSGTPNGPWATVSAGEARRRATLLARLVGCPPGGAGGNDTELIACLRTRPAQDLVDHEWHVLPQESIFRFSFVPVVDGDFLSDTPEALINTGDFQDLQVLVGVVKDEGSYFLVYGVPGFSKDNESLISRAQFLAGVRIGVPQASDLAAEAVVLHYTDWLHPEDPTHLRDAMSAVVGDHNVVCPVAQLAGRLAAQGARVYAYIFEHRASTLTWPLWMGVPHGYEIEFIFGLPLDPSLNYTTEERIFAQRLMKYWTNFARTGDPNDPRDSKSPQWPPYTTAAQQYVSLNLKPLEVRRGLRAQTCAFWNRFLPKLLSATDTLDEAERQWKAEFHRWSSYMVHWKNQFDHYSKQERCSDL
The data set can be described thus: Inhibition of AChE on the mouse brain after single doses (class F derivatives). The data set is classed as in vivo. Conditions: single doses (0.4-7 mg/kg).

Data set [5] is described as follows: Pharmacokinetics after oral and intramuscular administration (class F derivatives). The data set is classed as in vivo. Particulars: rats; for maximum peak / time of the maximum peak after the oral administration: oral administration 7 mg/kg. The protocol: The kinetics of MGR001, MGR002, and MGR003 is determined in rats after oral administration and intramuscular of respectively 7 and 3.5 mg/kg. The maximum peak of 30 µg/ml is found 1 hour after the oral administration.

Data set [6] relates to mice (Swiss strain of both sexes). The data set can be described thus: Acute toxicity, LD50 by oral administration in mice (class F derivatives). Conditions: mice, oral administration.
In data set [7] the test system is motor activity. Briefly: Antagonist effect on the stimulating effect of scopolamine (class C derivatives). The data set is classed as in vivo. Conditions: scopolamine 1 mg/kg; oral administration. The protocol: This is countered by the oral administration of 2.5 mg of ES001, ES002, ES003.
The test system of data set [8] is anticholinesterase activity, on the mouse brain. Briefly: Inhibition of cholinesterase activity on the mouse brain after single doses (class C derivatives). The data set is classed as in vivo.
Data set [9] concerns mouse. The data set can be described thus: Toxicity, LD50 by intraperitoneal route (class C derivatives). The data set is classed as in vivo. The source says:
In the following table reported are the LD50 values determined on mouse for the compounds listed and compared with the corresponding LD50 value for physostigmine, administered by the same (intraperitoneal) route.

The compound `CN1CC[C@@]2(C)c3cc(OC(=O)NCCCCCCCN)ccc3N(C)[C@@H]12` [MGF005, (3a S-cis) - 1,2,3,3a,8,8a hexahydro - 1,3a,8 - trimethyl pyrrol [2,3,b]-indol-5-ol-amino heptyl carbamate ester] yielded an LD50 per os in the data set on mice (Swiss strain) of 428.42 ± 56.21 mg/kg. For the same compound, the “oral dose causing a significant decrease of the spontaneous motility” value in the data set on mouse [1] was 2.5 to 5 mg/kg. Besides, in data set [2], the “inhibitory acetylcholinesterase activity (in words)” value was “clear inhibitory dose-dependent and reversible”.

In the case of `CC(=O)OCC(COP(=O)(O)OCCNC(=O)Oc1ccc2c(c1)[C@]1(C)CCN(C)[C@@H]1N2C)OC(C)=O` (stereo partly drawn) [MGR001, (3aS-cis) 1,2,3,3a,8,8a-hexahydro-1,3a,8 trimethyl-pyrrol-[2,3-b]-indol-5-ol-diacetylglycerylphosphoryl-ethyl carbamate ester], the “oral dose countering the stimulating effect of scopolamine” value in the data set with motor activity [3] was found to be 2.5 mg. In addition, the “inhibition of AChE (acetylcholinesterase) on the mouse brain (in words)” value (from here on “inhibition of AChE”) in data set [4] was “dose-dependence and reversible inhibition”. Besides, in data set [5], the “liver kinetics / excretion” value is recorded as “pass through into the urine unchanged”, the maximum peak was 30 µg/mL and the “time of the maximum peak after the oral administration” value (“time of the maximum peak” for short) stood at 1 h. Further, the median lethal dose (LD50) (commonly the dose expected to kill half of the subjects tested) in data set [6] turned out to be 500 mg/kg.

Consider `CN1CC[C@@]2(C)c3cc(OC(=O)NCCOP(=O)(O)OCC(O)CO)ccc3N(C)[C@@H]12` (stereo partly drawn) [MGR002, (3aS-cis) 1,2,3,3a,8,8a-hexahydro-1,3a,8 trimethyl-pyrrol-[2,3-b]-indol-5-ol-glycerylphosphoryl-ethyl carbamate ester], for which the “oral dose countering the stimulating effect of scopolamine” value in the data set with motor activity [3] was determined as 2.5 mg. The “inhibition of AChE” value in [4] is “dose-dependence and reversible inhibition”. In addition, in data set [5], the “liver kinetics / excretion” value is recorded as “pass through into the urine unchanged”, the maximum peak was found to be 30 µg/mL and the “time of the maximum peak” value was 1 h. The compound further displayed a median lethal dose (LD50) in data set [6] of 485 mg/kg.

Turning to `CC(=O)OCC(COP(=O)(O)OC[C@H](NC(=O)Oc1ccc2c(c1)[C@]1(C)CCN(C)[C@@H]1N2C)C(=O)O)OC(C)=O` (stereo partly drawn) [MGR003, (3aS-cis) 1,2,3,3a,8,8a-hexahydro - 1,3a,8 trimethyl-pyrrol-[2,3-b]-indol-5-ol-diacetyl-glycerylphosphoryl-2L -carboxylethyl carbamate ester], the “oral dose countering the stimulating effect of scopolamine” value in the data set on motor activity [3] was 2.5 mg. Moreover, the “inhibition of AChE” value in data set [4] was “dose-dependence and reversible inhibition”. For the same compound, in [5], the maximum peak is 30 µg/mL and the “time of the maximum peak” value came to 1 h. This compound also came in with an LD50 in [6] of 350 mg/kg.

Regarding “trimethyl -1,3a,8-hexahydro-1,2,3a,8,8a-pyrrol(2,3-b)indol-5-(3aS,8aR)12-hydroxystearylpropylcarbamate [ES003]”, in the data set on motor activity [7], the “oral dose countering the stimulating effect of scopolamine” value is reported as 2.5 mg. Also, in [8] (even at higher doses), the “suppression of the enzymatic activity” value is listed as “do not completely suppress the enzymatic activity”. The “duration of the inhibitory activity compared with physostigmine” value in data set [8] (mouse brain) was “lasts longer than that of physostigmine”. The “inhibition of the anticholinesterase activity, on the mouse brain (in words)” value in data set [8] (single doses in the range 0.4-7mg/kg) is on record as “dose-dependence, reversible inhibition”. The “LD50 (mg/kg i.p)” value with mouse [9] was >40 mg/kg i.p and <80 mg/kg i.p.
